In general, IC50 refers to the midpoint of a concentration-inhibition curve. Lower therefore signals inhibition by little substance.

This assay addresses HSP90 (Homo sapiens, UniProt P07900). The assay is described as follows: HSP90 inhibition (HSP90 IC50). Type of assay: biochemical.
`COc1cccc(C(=O)NC2CC3CCC(C2)N3c2ccc(C(=O)N[C@@H]3CCN(C)C3)cn2)c1C` (stereo partly drawn) [6-[3-endo-({[2-methyl-3-(methyloxy)phenyl]carbonyl}amino)-8-azabicyclo[3.2.1]oct-8-yl]-N-[(3R)-1-methylpyrrolidin-3-yl]pyridine-3-carboxamide] had an IC50 of less than 500 nM.
The same measure for `CON(C)C(=O)c1ccc(N2[C@@H]3CC[C@H]2C[C@@H](NC(=O)c2ccc(C(N)=O)c(NCC4CC4)c2)C3)nc1` [2-[(cyclopropylmethyl)amino]-N4-[8-(5-{[methyl(methyloxy)amino]carbonyl}pyridin-2-yl)-8-azabicyclo[3.2.1]oct-3-endo-yl]benzene-1,4-dicarboxamide]: 1000 to 2000 nM.
Turning to `COc1ccc(Nc2cc(C(=O)N[C@H]3C[C@H]4CC[C@@H](C3)N4c3ccc(C(C)=O)cn3)ccc2C(N)=O)cc1OCCN(C)C` [N4-[8-(5-acetylpyridin-2-yl)-8-azabicyclo[3.2.1]oct-3-endo-yl]-2-{[3-{[2-(dimethylamino)ethyl]oxy}-4-(methyloxy)phenyl]amino}benzene-1,4-dicarboxamide], the IC50 was less than 500 nM.
The figure for `COc1cccc(C(=O)N[C@H]2C[C@H]3CC[C@@H](C2)N3c2ccc(C(=O)NCc3cc(F)ccc3F)cn2)c1C` [N-[(2,5-difluorophenyl)methyl]-6-[3-endo-({[2-methyl-3-(methyloxy)phenyl]carbonyl}amino)-8-azabicyclo[3.2.1]oct-8-yl]pyridine-3-carboxamide] is 500 to 999 nM; for `CCN1CCC(Nc2cc(C(=O)N[C@H]3C[C@H]4CC[C@@H](C3)N4c3ccc(C(C)=O)cn3)ccc2C(N)=O)CC1` [N4-[8-(5-acetylpyridin-2-yl)-8-azabicyclo[3.2.1]oct-3-endo-yl]-2-[(1-ethylpiperidin-4-yl)amino]benzene-1,4-dicarboxamide] it is 500 to 999 nM.
In the case of `COc1cccc(C(=O)N[C@H]2C[C@H]3CC[C@@H](C2)N3c2ccc(C(=O)NCCC(C)(C)C)cn2)c1C` [N-(3,3-dimethylbutyl)-6-[3-endo-({[2-methyl-3-(methyloxy)phenyl]carbonyl}amino)-8-azabicyclo[3.2.1]oct-8-yl]pyridine-3-carboxamide], the half-maximal inhibitory concentration (IC50) is 2000 to 10000 nM.
The figure for `Cc1c(C(N)=O)cccc1C(=O)N[C@H]1C[C@H]2CC[C@@H](C1)N2c1ccc(C(=O)NCc2ccccc2)cn1` [2-methyl-N-[8-(5-{[(phenylmethyl)amino]carbonyl}pyridin-2-yl)-8-azabicyclo[3.2.1]oct-3-endo-yl]benzene-1,3-dicarboxamide] is 2000 to 10000 nM; for `Cc1cc(C(=O)N[C@H]2C[C@H]3CC[C@@H](C2)N3c2ccc(C(N)=O)cn2)c(C)cc1C(N)=O` [N-{8-[5-(aminocarbonyl)pyridin-2-yl]-8-azabicyclo[3.2.1]oct-3-endo-yl}-2,5-dimethylbenzene-1,4-dicarboxamide] it is less than 500 nM.
Molecule `CCNC(=O)[C@@H](NC(=O)c1ccc(N2C3CCC2CC(NC(=O)c2cccc(OC)c2C)C3)nc1)c1ccc(OC)cc1` (stereo partly drawn) [N-{(1S)-2-(ethylamino)-1-{4-(methyloxy)phenyl]-2-oxoethyl}-6-[3-endo-({[2-methyl-3-(methyloxy)phenyl]carbonyl}amino)-8-azabicyclo[3.2.1]oct-8-yl]pyridine-3-carboxamide] had an IC50 of 500 to 999 nM.
Turning to `NC(=O)c1ccc(C(=O)N[C@H]2C[C@H]3CC[C@@H](C2)N3c2ccc(C(=O)C3CCCC3)cn2)cc1NCC1CC1` [N4-{8-[5-(cyclopentylcarbonyl)pyridin-2-yl]-8-azabicyclo[3.2.1]oct-3-endo-yl}-2-[(cyclopropylmethyl)amino]benzene-1,4-dicarboxamide], the IC50 fell in the range of 2000 to 10000 nM.
As for `COc1cccc(C(=O)N[C@H]2C[C@H]3CC[C@@H](C2)N3c2ccc(C(=O)NC3CCCC3)cn2)c1C` [N-cyclopentyl-6-[3-endo-({[2-methyl-3-(methyloxy)phenyl]carbonyl}amino)-8-azabicyclo[3.2.1]oct-8-yl]pyridine-3-carboxamide], the IC50 was in the range of 500 to 999 nM.
The figure for `COc1cccc(C(=O)NC2CC3CCC(C2)N3c2ccc(C(=O)NC3CCN(c4ccccc4)CC3)cn2)c1C` (stereo not drawn) [6-[3-endo-({[2-methyl-3-(methyboxy)phenyl]carbonyl}amino)-8-azabicyclo[3.2.1]oct-8-yl]-N-(1-phenylpiperidin-4-yl)pyridine-3-carboxamide] is 2000 to 10000 nM.
`CC[C@@H](C)Nc1cc(C(=O)NC2CC3CCC(C2)N3c2ccc(C(=O)C3CC3)cn2)c(C)cc1C(N)=O` (stereo partly drawn) [N-{8-[5-(cyclopropylcarbonyl)pyridin-2-yl]-8-azabicyclo[3.2.1]oct-3-endo-yl}-2-methyl-5-{[(1R)-1-methylpropyl]amino}benzene-1,4-dicarboxamide] yielded an IC50 of less than 500 nM.
Turning to `Cc1cc(C(N)=O)cc(C)c1C(=O)N[C@H]1C[C@H]2CC[C@@H](C1)N2c1ccc(C(=O)NCc2ccccc2)cn1` [2,6-dimethyl-N1-[8-(5-{[(phenylmethyl)amino]carbonyl}pyridin-2-yl)-8-azabicyclo[3.2.1]oct-3-endo-yl]benzene-1,4-dicarboxamide], the IC50 is 500 to 999 nM.
The same measure for `COc1cccc(C(=O)N[C@H]2C[C@H]3CC[C@@H](C2)N3c2ccc(C(=O)NCCN3CCOCC3)cn2)c1C` [6-[3-endo-({[2-methyl-3-(methyloxy)phenyl]carbonyl}amino)-8-azabicyclo[3.2.1]oct-8-yl]-N-(2-morpholin-4-ylethyl)pyridine-3-carboxamide]: 1000 to 2000 nM.
Molecule `COc1cccc(C(=O)N[C@H]2C[C@H]3CC[C@@H](C2)N3c2ccc(C(=O)Nc3ccc(OCCN(C)C)cc3)cn2)c1C` [N-(4-{[2-(dimethylamino)ethyl]oxy}phenyl)-6-[3-endo-({[2-methyl-3-(methyloxy)phenyl]carbonyl}amino)-8-azabicyclo[3.2.1]oct-8-yl]pyridine-3-carboxamide] displayed an IC50 of 500 to 999 nM.
Regarding `COc1cccc(C(=O)N[C@H]2C[C@H]3CC[C@@H](C2)N3c2ccc(C(N)=O)cn2)c1CC(O)CO` (stereo partly drawn) [6-[3-endo-({[2-(2,3-dihydroxypropyl)-3-(methyloxy)phenyl]carbonyl}amino)-8-azabicyclo[3.2.1]oct-8-yl]pyridine-3-carboxamide], the IC50 fell in the range of 2000 to 10000 nM.
The figure for `C[C@H](NC(=O)c1ccc(N2C3CCC2CC(NC(=O)c2ccc(C(N)=O)c(NCC4CC4)c2)C3)nc1)c1ccc(N2CCN(C)CC2)cc1` (stereo partly drawn) [2-[(cyclopropylmethyl)amino]-N4-(8-{5-[({(1S)-1-[4-(4-methylpiperazin-1-yl)phenyl]ethyl}amino)carbonyl]pyridin-2-yl}-8-azabicyclo[3.2.1]oct-3-endo-yl)benzene-1,4-dicarboxamide] is less than 500 nM.
Molecule `CC(=O)c1ccc(N2[C@@H]3CC[C@H]2C[C@@H](NC(=O)c2ccc(C(N)=O)c(NCC(F)(F)C(F)(F)C(F)(F)F)c2)C3)nc1` [N4-[8-(5-acetylpyridin-2-yl)-8-azabicyclo[3.2.1]oct-3-endo-yl]-2-[(2,2,3,3,4,4,4-heptafluorobutyl)amino]benzene-1,4-dicarboxamide] registered an IC50 of 500 to 999 nM.
The same measure for `COc1cccc(C(=O)NC2CC3CCC(C2)N3c2ccc(C(=O)NCC3CCNC3)cn2)c1C` (centres unmarked): less than 500 nM; for `CC[C@H](C)NC(=O)c1ccc(N2C3CCC2CC(NC(=O)c2cccc(OC)c2C)C3)nc1` (stereo partly drawn) [6-[3-endo-({[2-methyl-3-(methyloxy)phenyl]carbonyl}amino)-8-azabicyclo[3.2.1]oct-8-yl]-N-[(1S)-1-methylpropyl]pyridine-3-carboxamide]: 2000 to 10000 nM; for `COc1cccc(C(=O)N[C@H]2C[C@H]3CC[C@@H](C2)N3c2ccc(C(=O)Nc3ccc(C4CCN(C)CC4)cc3)cn2)c1C` [6-[3-endo-({[2-methyl-3-(methyloxy)phenyl]carbonyl}amino)-8-azabicyclo[3.2.1]oct-8-yl]-N-[4-(1-methylpiperidin-4-yl)phenyl]pyridine-3-carboxamide]: 1000 to 2000 nM.
The same measure for `CCC(CC)Nc1cc(C(=O)N[C@H]2C[C@H]3CC[C@@H](C2)N3c2ccc(C(=O)CCC3CCN(C)CC3)cn2)c(C)cc1C(N)=O` [5-[(1-ethylpropyl)amino]-2-methyl-N-(8-{5-[3-(1-methylpiperidin-4-yl)propanoyl]pyridin-2-yl}-8-azabicyclo[3.2.1]oct-3-endo-yl)benzene-1,4-dicarboxamide]: less than 500 nM.
Consider `COc1cc(CNC(=O)c2ccc(N3[C@@H]4CC[C@H]3C[C@@H](NC(=O)c3cccc(OC)c3C)C4)nc2)cc(OC)c1` [N-{[3,5-bis(methyloxy)phenyl]methyl}-6-[3-endo-({[2-methyl-3-(methyloxy)phenyl]carbonyl}amino)-8-azabicyclo[3.2.1]oct-8-yl]pyridine-3-carboxamide], for which the IC50 is 1000 to 2000 nM.
Turning to `COCCCNC(=O)c1ccc(N2[C@@H]3CC[C@H]2C[C@@H](NC(=O)c2cccc(OC)c2C)C3)nc1` [6-[3-endo-({[2-methyl-3-(methyloxy)phenyl]carbonyl}amino)-8-azabicyclo[3.2.1]oct-8-yl]-N-[3-(methyloxy)propyl]pyridine-3-carboxamide], the 50% inhibitory concentration (IC50) lay in the range of 500 to 999 nM.
For `COc1cccc(C(=O)N[C@H]2C[C@H]3CC[C@@H](C2)N3c2ccc(C(=O)Nc3ccccc3C)cn2)c1C` [6-[3-endo-({[2-methyl-3-(methyloxy)phenyl]carbonyl}amino)-8-azabicyclo[3.2.1]oct-8-yl]-N-(2-methylphenyl)pyridine-3-carboxamide], the IC50 lay in the range of 2000 to 10000 nM.
As to `COc1cccc(C(=O)NC2CC3CCC(C2)N3c2ccc(C(=O)NC(C)c3ccc(Cl)cc3)cn2)c1C` (stereo not drawn) [N-[1-(4-chlorophenyl)ethyl]-6-[3-endo-({[2-methyl-3-(methyloxy)phenyl]carbonyl}amino)-8-azabicyclo[3.2.1]oct-8-yl]pyridine-3-carboxamide], the IC50 was less than 500 nM.
The same measure for `C=CCc1c(OC)cccc1C(=O)N[C@H]1C[C@H]2CC[C@@H](C1)N2c1ccc(C(=O)NCc2ccccc2)cn1` [6-[3-endo-({[3-(methyloxy)-2-prop-2-en-1-ylphenyl]carbonyl}amino)-8-azabicyclo[3.2.1]oct-8-yl]-N-(phenylmethyl)pyridine-3-carboxamide]: 500 to 999 nM; for `CC(=O)c1ccc(N2[C@@H]3CC[C@H]2C[C@@H](NC(=O)c2ccc(C(N)=O)c(NC(C)C(C)C)c2)C3)nc1` (stereo partly drawn) [N4-[8-(5-acetylpyridin-2-yl)-8-azabicyclo[3.2.1]oct-3-endo-yl]-2-[(1,2-dimethylpropyl)amino]benzene-1,4-dicarboxamide]: less than 500 nM.

The values are drawn from patent publication US8012956B2, “Tropane compounds” (Exelixis, Inc., priority 2007, dated 2011).
